Experimental data taken from patent US9511017B2, “Method and composition for use in preparation of a patient for surgery” (priority 2005, dated 2016).

Columns and labels:
[1] = Transcutaneous penetration / comparative release of active ingredient in horizontal glass Franz-type diffusion cells; type: in vitro ADME; details: 2 hrs; 0.5 g sample; mean of duplicates
Source text: The transcutaneous penetration and comparative release of active ingredient were compared using a horizontal glass Franz-type diffusion cells such as are described in R. Danids, (Skin Care Forum, Issue 37, August 2004, Cognis); S. Jung, (The University of California Irvine Undergraduate Research Journal, p. 25-26, Vol V, 2002, University of California Irvine); Guideline for Industry Non-sterile Semisolid Dosage Forms (SUPAC-SS CMC7), May 1997, U.S. Department of Health and Human Services FDA CDER. A standard cellophane dialysis membrane of MW cut off 6-8000 was used for the diffusion studies. The Franz cell receiving solution was composed of 50% v/v methanol/water. Cellophane membranes were mounted horizontally in the Franz cells. 0.5 g of sample were used for each test. The cell receptor was continuously stirred magnetically and maintained at 35+/−2° C. At the designated time 150 microliters aliquots were sampled from the receiving vessel of the Franz cells. 20 microliters were injected into HLPC. […]
0.5 g samples of compositions according to examples 2, 3 and 4 were compared over periods of 2, 4 and 7 hours with a prior art composition comprising 5% chlorhexidine in 62% ethyl alcohol. […] Column C, D, and E give the results for the actives in the respective formulations, both in mg and as a % of the sample quantity tested.

[2] = test system: Pseudomonas aeruginosa ATTC 15442; details: triclosan alone, known; cited from earlier work

| chlorhexidine penetrated, % of the sample quantity tested [1] [%] | Compound | triclosan penetrated, % of the sample quantity tested [1] [%] | effectiveness against Pseudomonas aeruginosa [2] |
| --- | --- | --- | --- |
| < 0.24 | [H]/N=C(\N/C(=N/[H])NCCCCCCNC(=N)NC(=N)Nc1ccc(Cl)cc1)Nc1ccc(Cl)cc1 [chlorhexidine] | – | – |
| – | Oc1cc(Cl)ccc1Oc1ccc(Cl)cc1Cl [triclosan, 2,4,4-trichloro-2-hydroxy-diphenylether] | 0.24 | relatively ineffective |
